The source of these data is patent US8445501B2, “Substituted 7-carboxamido-pyrrolo[3,2-d]pyrimidines” (Takeda GmbH, priority 2008, dated 2013).

This assay deals with T1, human PDE5 (Homo sapiens, UniProt O76074).
T1 construct: from tissue; host or cells: platelets from fresh blood of human donors (lysate, 10,000 g supernatant)
As to the kind of experiment: Inhibition of the type 5 phosphodiesterase (PDE5) activity, modified SPA test with platelet lysate. It counts as biochemical. The settings on record: PDE5 from human platelet lysate, 0.5 μM cGMP. The gist of the method: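 Human platelet lysate (10,000 g supernatant) as PDE5 source in SPA with 0.5 μM cGMP plus [3H]cGMP tracer, pH 7.4, 5 mM Mg2+, 1 μM motapizone and 10 nM PDE2 inhibitor; 10–20% conversion. 5 min preincubation, 15 min at 37 °C, stopped with SPA beads/IBMX. IC50 by non-linear regression.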
For the compound `CCOC(=O)N1CCC(NC(=O)c2c[nH]c3c(-c4ccccc4OCC4CC4)ncnc23)CC1` [Example 95, 4-{[4-(2-Cyclopropylmethoxy-phenyl)-5H-pyrrolo[3,2-d]pyrimidine-7-carbonyl]-amino}-piperidine-1-carboxylic acid ethyl ester], the IC50 (commonly the midpoint of a concentration-inhibition curve) was 3.31 nM.

Take `COCC(=O)N[C@H]1CC[C@H](NC(=O)c2c[nH]c3c(-c4cc(F)ccc4OCC4CC4)ncnc23)CC1` [Example 89, trans-4-(2-Cyclopropylmethoxy-5-fluoro-phenyl)-5H-pyrrolo[3,2-d]pyrimidine-7-carboxylic acid [4-(2-methoxy-acetylamino)-cyclohexyl]-amide]: inhibition was half-maximal at 1.29 nM (IC50).

`COCC(=O)N1CC(NC(=O)c2c[nH]c3c(-c4c(OCC5CC5)ccc5c4OCO5)ncnc23)C1` [Example 41, 4-(5-Cyclopropylmethoxy-benzo[1,3]dioxol-4-yl)-5H-pyrrolo[3,2-d]pyrimidine-7-carboxylic acid [1-(2-methoxy-ethanoyl)-azetidin-3-yl]amide] had an IC50 of 0.891 nM.

`COc1cc(OCC2CC2)c(-c2ncnc3c(C(=O)N[C@@H]4CCCN(C(=O)[C@H](C)O)C4)c[nH]c23)cc1F` [Example 240, 4-(2-Cyclopropylmethoxy-5-fluoro-4-methoxy-phenyl)-5H-pyrrolo[3,2-d]pyrimidine-7-carboxylic acid [(R)-1-((S)-2-hydroxy-propanoyl)piperidin-3-yl]-amide]: half-maximal inhibition (IC50) required 0.501 nM.

In turn, `CC(=O)N1CC(NC(=O)c2c[nH]c3c(-c4c(OCC5CC5)ccc5c4OCO5)ncnc23)C1` [Example 39, 4-(5-Cyclopropylmethoxy-benzo[1,3]dioxol-4-yl)-5H-pyrrolo[3,2-d]pyrimidine-7-carboxylic acid (1-acetyl-azetidin-3-yl)-amide] showed an IC50 of 0.776 nM.

Regarding `O=CN1CCOC(CNC(=O)c2c[nH]c3c(-c4c(OCC5CC5)ccc5c4OCO5)ncnc23)C1` (stereo not drawn) [Example 35, 4-(5-Cyclopropylmethoxy-benzo[1,3]dioxol-4-yl)-5H-pyrrolo[3,2-d]pyrimidine-7-carboxylic acid (4-formyl-morpholin-2-ylmethyl)-amide], the IC50 is 0.708 nM.

For the compound `COCCOc1cc(OC)ccc1-c1ncnc2c(C(=O)NC3CCN(C(C)=O)CC3)c[nH]c12` [Example 158, 4-[4-Methoxy-2-(2-methoxy-ethoxy)-phenyl]-5H-pyrrolo[3,2-d]pyrimidine-7-carboxylic acid (1-acetyl-piperidin-4-yl)-amide], it took 24 nM to reach half-maximal inhibition (IC50).

`COCC(=O)N1CC[C@@H](NC(=O)c2c[nH]c3c(-c4cc(OC)c(F)cc4OCC4CC4)ncnc23)C1` [Example 105, 4-(2-Cyclopropylmethoxy-4-fluoro-5-methoxy-phenyl)-5H-pyrrolo[3,2-d]pyrimidine-7-carboxylic acid [(R)-1-(2-methoxy-acetyl)-pyrrolidin-3-yl]amide] gave an IC50 of 0.372 nM.

Take `COCCOc1cc(OC)ccc1-c1ncnc2c(C(=O)N[C@H]3CC[C@H](NC(C)=O)CC3)c[nH]c12` [Example 155, trans-4-[4-Methoxy-2-(2-methoxy-ethoxy)-phenyl]-5H-pyrrolo[3,2-d]pyrimidine-7-carboxylic acid (4-acetylamino-cyclohexyl)-amide]: it took 9.55 nM to reach half-maximal inhibition (IC50).
